Legend:
[1] = molecular target: T1, MAO B (Homo sapiens, UniProt P27338); experiment: FAD coupling in intact cells: MAO B enzymatic activity after electroporation of MAO B cDNA with cofactor into Rib^- COS-7 cells ([^14 C] benzylamine substrate); assay type: cell-based; design: Percent of Holo-MAO B Activity: concentration or dose not given beside the values; settings: for restoration of active MAO B (in words): cofactor added with MAO B cDNA during electroporation; for Enzymatic Activity: cofactor added with MAO B cDNA into Rib^- COS-7 cells, 48 hours, mean ± SE, three experiments; for Percent of Holo-MAO B Activity: relative to holo-MAO B expressed in Rib^+ COS-7 cells, 2880 min
T1 construct: expressed in transfected cells; host or cells: COS-7 (African green monkey), riboflavin-containing (Rib+) or riboflavin-depleted (Rib-), transient electroporation
T1 sequence (P27338 1-520): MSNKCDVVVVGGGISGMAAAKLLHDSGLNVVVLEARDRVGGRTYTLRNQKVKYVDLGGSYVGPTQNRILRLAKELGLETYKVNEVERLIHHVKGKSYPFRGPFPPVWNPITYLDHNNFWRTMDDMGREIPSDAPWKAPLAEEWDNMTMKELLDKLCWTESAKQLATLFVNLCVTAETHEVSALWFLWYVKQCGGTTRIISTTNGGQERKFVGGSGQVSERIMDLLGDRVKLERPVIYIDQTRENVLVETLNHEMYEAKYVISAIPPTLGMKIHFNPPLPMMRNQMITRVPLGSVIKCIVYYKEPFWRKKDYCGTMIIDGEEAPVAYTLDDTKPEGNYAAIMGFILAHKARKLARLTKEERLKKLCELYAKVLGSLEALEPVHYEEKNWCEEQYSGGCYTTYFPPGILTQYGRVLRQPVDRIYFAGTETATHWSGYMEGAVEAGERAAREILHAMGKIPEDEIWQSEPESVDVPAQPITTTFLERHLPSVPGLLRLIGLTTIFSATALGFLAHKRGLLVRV
Protocol: (§1) Wild-type or mutant MAO B cDNAs were transiently transfected into COS-7 cells by electroporation (23) as previously described (18). Briefly, Rib^+ - or Rib^- COS-7 cells were harvested during late log phase growth and resuspended to a concentration of 3.1×10^6 cells/ml in either riboflavin-containing or riboflavin-free medium, respectively. Wild-type or mutant MAO B cDNAs ([…]) were added to 0.8 ml of cell suspension. […] Electroporation was carried out in a Bio-Rad Gene Pulser with a setting of 250 V and 500 μF. Cells were resuspended in 15 ml of riboflavin-containing or riboflavin-free medium and incubated at 37° C. with 5% CO2. Transfected COS-7 cells were harvested at 48 hours and homogenized in a lysis solution containing 20 mM Tris-HCl, 1 mM EDTA, 0.5 mM PMSF, pH 8.0. The homogenate was diluted with an equal volume of the same buffer supplemented with 300 mM NaCl to obtain a 150 mM final NaCl concentration. Triton X-100 (Pierce) was added to the lysate to give a final concentration of 0.25%, and the samples were allowed to stir for 50 min. at 4° C. to extract MAO B from the outer mitochondrial membrane. After Triton extraction, the lysate was centrifuged at 1300×g for 5 min. at 4° C. to remove insoluble cell debris.
MAO B activity was assayed radiometrically by a modification of the method of Wurtman and Axelrod (26) as described previously (18). Briefly, the reaction mixture contained 200 μl of 50 mM sodium phosphate buffer (pH 7.4), 3.6 nmole of 55 mCi/mmol [^14 C] benzylamine hydrochloride (Amersham), 10 nmoles of unlabeled benzylamine and 10 μl of cell lysate. Samples were run in triplicate, and one out of each set was denatured with […] of 6N HCl prior to the addition of substrate to serve as an internal control. All reactions were incubated for 9 minutes at 37° C., and terminated by the addition of 25 μl of 6N HCl. The reaction product was extracted with 500 μl of toluene, and an aliquot (200 μl) of the organic phase from each sample was counted in liquid scintillation fluid (Bio-Safe) in a Beckman LB 3801 scintillation counter.
FMN or riboflavin were also capable of restoring approximately 75% of MAO B holoenzyme activity. However, only 40% of MAO B holoenzyme activity was obtained by the addition of 8α-hydroxyriboflavin.
Various cofactors were added with MAO B cDNA into Rib^- COS7 cells

[2] = molecular target: T1, MAO B; experiment: Quantitation of expressed MAO B protein by ELISA in transfected COS-7 cells; assay type: cell-based; design: MAO B Expressed: unit not given here; settings: cofactor added with MAO B cDNA into Rib^- COS-7 cells; 48 hours; mean ± SE, three experiments
Protocol: Total protein concentrations of samples containing MAO B holoenzyme, apoenzyme, or variant MAO Bs were determined by a MicroBCA kit (Pierce). All samples were then adjusted to equal protein concentrations and assayed for MAO B protein by ELISA using a modification of the method of Yeomanson and Billett (25) as described previously (18).
MAO B cDNA was expressed sequentially at different time intervals in these cells during this riboflavin depletion process (FIG. 2). Each data point in FIG. 2 represents an individual expression assay. For each assay, a sample of COS-7 cells grown in riboflavin-free medium were transfected with MAO B cDNA via electroporation. Concurrently, Rib^+ COS-7 cells were transfected with MAO B cDNA to serve as a control. Following incubation for 48 hours, the cells were homogenized and assays were performed to determine protein concentration, MAO B concentration by ELISA using polyclonal antibodies, and MAO B activity using [^14 C] benzylamine.
An equal amount of MAO B cDNA (15 μg) was expressed in both types of […]

[3] = test system: MAO B; experiment: [^14 C] FAD incorporation into wild-type or mutant MAO B in Rib^- COS-7 cells (immunoprecipitation, fluorography); assay type: binding, human; settings: about 59 kDa; equal MAO B concentrations
Protocol: Mutagenesis was carried out by the method of Deng and Nickoloff (22) using a Transformer Site-directed Mutagenesis kit (Clontech). Glu in position 34 was replaced with Asp (E34D), Gln (E34Q), or Ala (E34A), and Val in position 10 was replaced with Ile (V10I) as described by Kwan et al. (18).
as §1
Transfected Rib^+ - or Rib^- COS-7 cells were homogenized, and extracted with 0.25% Triton X-100 for 50 minutes at 4° C. The cell lysates were centrifuged at 1300×g for 5 minutes, and an aliqout of each supernatant was analyzed for MAO B concentration by ELISA. All supernatants were then adjusted to equal MAO B concentration and incubated with polyclonal goat anti-MAO B antibody (10 μg) overnight at 4° C. Protein-G Sepharose beads (Pierce) were added (50 μl) and incubation was continued for 3 hours. The protein-G Sepharose/goat antibody/MAO B immmunocomplex was collected by centrifugation at 10,000×g for 20 seconds and washed 6 times with 150 μl of 20 mM Tris buffer, pH 8.0. The immunocomplex was then dissolved in SDS-PAGE sample buffer and analyzed by Western blot or fluorography.
The immunoprecipitated proteins (obtained as described above) were subjected to electrophoresis in a 10% SDS-polyacrylamide gel and examined by Western blotting as previously described (18). The immunoprecipitated proteins (obtained as described above) were subjected to electrophoresis in a 10% SDS-polyacrylamide gel. The SDS-PAGE gel was fixed by soaking in 7% acetic acid, 10% methanol, 83% H2 O for 1 hour, and then processed for fluorography as described by Bonner and Laskey (27). The dried gel was exposed to Kodak X-OMAT AR film at -80° C. for 2 weeks.
The expressed wild-type and variant MAO Bs were adjusted to equal concentrations using ELISA before immunoprecipitation, and then analyzed by fluorography. The amount of incorporation of [^14 C] […] FAD was incorporated into the enzyme.

Molecule	restoration of active MAO B (in words) [1]	Enzymatic Activity [1]	Percent of Holo-MAO B Activity [1]	MAO B Expressed [2]	MAO B activity relative to that obtained with riboflavin ([1]; Rib^- COS-7 cells)	Percent of Holo-MAO B Activity ([1]; listed as 8α-hydroxyriboflavin)	[^14 C] FAD incorporation (band on fluorogram) [3]
NC(=O)c1ccc[n+]([C@@H]2O[C@H](COP(=O)(O)OP(=O)(O)OC[C@H]3O[C@@H](n4cnc5c(N)ncnc54)[C@H](O)[C@@H]3O)[C@@H](O)[C@H]2O)c1 [NAD^+]	did not yield active MAO B	0.02 ± 0.00 μmol benzylamine/minute/mg MAO	1.8%	1.14 ± 0.06			
Cc1cc2nc3c(=O)[nH]c(=O)nc-3n(C[C@H](O)[C@H](O)[C@H](O)CO)c2cc1CO [8α-OH Rib, 8α-hydroxyriboflavin]		0.45 ± 0.01 μmol benzylamine/minute/mg MAO	39.8%	0.95 ± 0.08	about one half of that obtained with the addition of riboflavin	40%	
Cc1cc2nc3c(=O)[nH]c(=O)nc-3n(C[C@H](O)[C@H](O)[C@H](O)CO)c2cc1C [Riboflavin, riboflavin]	equal levels of MAO B activity	0.86 ± 0.06 μmol benzylamine/minute/mg MAO	76.1%	0.90 ± 0.13			
Cc1cc2nc3c(=O)[nH]c(=O)nc-3n(C[C@H](O)[C@H](O)[C@H](O)COP(=O)(O)O)c2cc1C [FMN]	equal levels of MAO B activity	0.85 ± 0.03 μmol benzylamine/minute/mg MAO		0.81 ± 0.17			
wild-type: wild-type MAO B expressed in Rib^- COS-7 cells (protein, UniProt P27338 2-520, looked up) Amine oxidase …: SNKCDVVVVGGGISGMAAAKLLHDSGLNVVVLEARDRVGGRTYTLRNQKVKYVDLGGSYVGPTQNRILRLAKELGLETYKVNEVERLIHHVKGKSYPFRGPFPPVWNPITYLDHNNFWRTMDDMGREIPSDAPWKAPLAEEWDNMTMKELLDKLCWTESAKQLATLFVNLCVTAETHEVSALWFLWYVKQCGGTTRIISTTNGGQERKFVGGSGQVSERIMDLLGDRVKLERPVIYIDQTRENVLVETLNHEMYEAKYVISAIPPTLGMKIHFNPPLPMMRNQMITRVPLGSVIKCIVYYKEPFWRKKDYCGTMIIDGEEAPVAYTLDDTKPEGNYAAIMGFILAHKARKLARLTKEERLKKLCELYAKVLGSLEALEPVHYEEKNWCEEQYSGGCYTTYFPPGILTQYGRVLRQPVDRIYFAGTETATHWSGYMEGAVEAGERAAREILHAMGKIPEDEIWQSEPESVDVPAQPITTTFLERHLPSVPGLLRLIGLTTIFSATALGFLAHKRGLLVRV							dark band
V10I: control variant, Val in position 10 replaced with Ile (protein, UniProt P27338 2-520, looked up, variant V10I) Amine oxidase …: SNKCDVVVIGGGISGMAAAKLLHDSGLNVVVLEARDRVGGRTYTLRNQKVKYVDLGGSYVGPTQNRILRLAKELGLETYKVNEVERLIHHVKGKSYPFRGPFPPVWNPITYLDHNNFWRTMDDMGREIPSDAPWKAPLAEEWDNMTMKELLDKLCWTESAKQLATLFVNLCVTAETHEVSALWFLWYVKQCGGTTRIISTTNGGQERKFVGGSGQVSERIMDLLGDRVKLERPVIYIDQTRENVLVETLNHEMYEAKYVISAIPPTLGMKIHFNPPLPMMRNQMITRVPLGSVIKCIVYYKEPFWRKKDYCGTMIIDGEEAPVAYTLDDTKPEGNYAAIMGFILAHKARKLARLTKEERLKKLCELYAKVLGSLEALEPVHYEEKNWCEEQYSGGCYTTYFPPGILTQYGRVLRQPVDRIYFAGTETATHWSGYMEGAVEAGERAAREILHAMGKIPEDEIWQSEPESVDVPAQPITTTFLERHLPSVPGLLRLIGLTTIFSATALGFLAHKRGLLVRV							dark band
